Assay results from the supplement of paper PMC11208160.

Test: recombinant UMI read abundance after kanamycin selection (control-corrected) (log10(CPM+1)); higher = more efficient recombination; extreme values may be limits of the assay; sequences stand for … in AGTGCAGAGAAAATCGGCCAGTTTTCTCTGCCTGCAGTCCGCATGCCGTGGGACCCCTTGGGTTCTAACCTGTTGCCTAGATTTATGCAGCGGACTGCCTTTCTCCCAAAGTGATAAACCGG…AGGTTGGTTTCACT; site = the 11-nt donor
In short: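 Values are reported as log10(CPM+1), obtained by converting sequencing counts to CPM, averaging replicates and scaling by control-derived factors. The counts came from recombinant UMIs amplified by PCR across the donor–target junction. These UMIs came from a pooled Escherichia coli screen of donor and donor-binding-loop pairs for the IS621 bridge recombinase, plated with IPTG (0.07 mM) plus kanamycin or left unselected, in two replicates each.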
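Further: IS621 bridge recombinase in Escherichia coli cells against a fixed T5 target plasmid.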

Point of comparison: “CTGTACACATGGACCGGTTTTCCCGGTAATCCGTATTTGCT (site CTCTACACTAG)”, “recombinant UMI read abundance (log10)” value 1.52. Against it:
- CTCGTATCATGGACCGGTTTTCCCGGTAATCCGTATTTGAC (site CTTGTATCTGT) — lower, 0
- CTCTAAACATGGACCGGTTTTCCCGGTAATCCGTATTTGCT (site CTCTAAACTAG) — higher, 2.06
- CTCTAAACATGGACCGGTTTTCCCGGTAATCCGTATTTGCT (site CTCTACACTAG) — lower, 0.676
- CTCTAAACATGGACCGGTTTTCCCGGTAATCCGTATTTGCT (site CTCTAGACTAG) — lower, 0.36
- CTCTAAACATGGACCGGTTTTCCCGGTAATCCGTATTTGCT (site CTCTATACTAG) — lower, 0
- CTCTATACATGGACCGGTTTTCCCGGTAATCCGTATTTGCT (site CTCTAAACTAG) — lower, 0
- CTCTATACATGGACCGGTTTTCCCGGTAATCCGTATTTGCT (site CTCTACACTAG) — lower, 0.592
- CTCTATACATGGACCGGTTTTCCCGGTAATCCGTATTTGCT (site CTCTAGACTAG) — lower, 0
- CTCTATACATGGACCGGTTTTCCCGGTAATCCGTATTTGCT (site CTCTATACTAG) — higher, 2.08
- CTCTCTACATGGACCGGTTTTCCCGGTAATCCGTATTTGAG (site CTCACTACTCT) — lower, 0.0192
- CTCTCTACATGGACCGGTTTTCCCGGTAATCCGTATTTGAG (site CTCCCTACTCT) — lower, 0.00919
- CTCTCTACATGGACCGGTTTTCCCGGTAATCCGTATTTGAG (site CTCGCTACTCT) — lower, 0.00461
- CTCTCTACATGGACCGGTTTTCCCGGTAATCCGTATTTGAG (site CTCTCTACTCT) — lower, 0.0107
- CTCTGTTCATGGACCGGTTTTCCCGGTAATCCGTATTTGCC (site CTCTGTTCTGG) — within 0.2 log units, 1.45
- CTCTTCACATGGACCGGTTTTCCCGGTAATCCGTATTTGGC (site CTCTTCACTGC) — higher, 2.73
- CTGAAAACATGGACCGGTTTTCCCGGTAATCCGTATTTGCA (site CTGAAAACTTG) — within 0.2 log units, 1.48
- CTGAAAACATGGACCGGTTTTCCCGGTAATCCGTATTTGCA (site CTGCAAACTTG) — lower, 0
- CTGAAAACATGGACCGGTTTTCCCGGTAATCCGTATTTGCA (site CTGGAAACTTG) — lower, 0
- CTGAAAACATGGACCGGTTTTCCCGGTAATCCGTATTTGCA (site CTGTAAACTTG) — lower, 0
- CTGAATCCATGGACCGGTTTTCCCGGTAATCCGTATTTGTT (site CAGAATCCTAA) — lower, 0.0107
- CTGAATCCATGGACCGGTTTTCCCGGTAATCCGTATTTGTT (site CCGAATCCTAA) — lower, 0
- CTGAATCCATGGACCGGTTTTCCCGGTAATCCGTATTTGTT (site CGGAATCCTAA) — lower, 0
- CTGAATCCATGGACCGGTTTTCCCGGTAATCCGTATTTGTT (site CTGAATCCTAA) — within 0.2 log units, 1.5
- CTGAATGCATGGACCGGTTTTCCCGGTAATCCGTATTTGTT (site CGGAATCCTAA) — lower, 0.00219
- CTGAATGCATGGACCGGTTTTCCCGGTAATCCGTATTTGTT (site CTGAATGCTAA) — higher, 1.94
- CTGCATACATGGACCGGTTTTCCCGGTAATCCGTATTTGTA (site CTGCATACTTA) — within 0.2 log units, 1.59
- CTGCCGACATGGACCGGTTTTCCCGGTAATCCGTATTTGCG (site CTGCCGACTCG) — higher, 1.83
- CTGCTAACATGGACCGGTTTTCCCGGTAATCCGTATTTGGA (site CTACTAACTTC) — lower, 1.16
- CTGCTAACATGGACCGGTTTTCCCGGTAATCCGTATTTGGA (site CTCCTAACTTC) — lower, 0.394
- CTGCTAACATGGACCGGTTTTCCCGGTAATCCGTATTTGGA (site CTGCTAACTTC) — within 0.2 log units, 1.62
- CTGCTAACATGGACCGGTTTTCCCGGTAATCCGTATTTGGA (site CTTCTAACTTC) — lower, 0.563
- CTGCTCACATGGACCGGTTTTCCCGGTAATCCGTATTTGCC (site CTGCTCACTGG) — higher, 2.59
- CTGGAGTCATGGACCGGTTTTCCCGGTAATCCGTATTTGCC (site CAGGAGTCTGG) — higher, 2.88
- CTGGAGTCATGGACCGGTTTTCCCGGTAATCCGTATTTGCC (site CCGGAGTCTGG) — lower, 1.26
- CTGGAGTCATGGACCGGTTTTCCCGGTAATCCGTATTTGCC (site CGGGAGTCTGG) — lower, 0
- CTGGAGTCATGGACCGGTTTTCCCGGTAATCCGTATTTGCC (site CTGGAGTCTGG) — higher, 2.84
- CTGGCATCATGGACCGGTTTTCCCGGTAATCCGTATTTGAC (site CTAGTATCTGT) — lower, 0
- CTGGCATCATGGACCGGTTTTCCCGGTAATCCGTATTTGAC (site CTGGCATCTGT) — within 0.2 log units, 1.53
- CTGGCTCCATGGACCGGTTTTCCCGGTAATCCGTATTTGGC (site CTGGCTCCTGC) — lower, 0.763
- CTGGCTGCATGGACCGGTTTTCCCGGTAATCCGTATTTGGT (site CTGGCTGCTAC) — within 0.2 log units, 1.7
- CTGGGCACATGGACCGGTTTTCCCGGTAATCCGTATTTGAG (site CTGGGCACTCT) — lower, 0.567
- CTGGTAGCATGGACCGGTTTTCCCGGTAATCCGTATTTGAC (site CTAGTATCTGT) — within 0.2 log units, 1.68
- CTGGTAGCATGGACCGGTTTTCCCGGTAATCCGTATTTGAC (site CTGGTAGCTGT) — higher, 2.85
- CTGGTGGCATGGACCGGTTTTCCCGGTAATCCGTATTTGTT (site CTGGTGGCTAA) — lower, 0.723
- CTGGTTTCATGGACCGGTTTTCCCGGTAATCCGTATTTGAC (site CTAGTATCTGT) — lower, 0.542
- CTGGTTTCATGGACCGGTTTTCCCGGTAATCCGTATTTGAC (site CTGGTTTCTGT) — higher, 1.87
- CTGTAATCATGGACCGGTTTTCCCGGTAATCCGTATTTGTG (site CTGTAATCTCA) — higher, 2.52
- CTGTACACATGGACCGGTTTTCCCGGTAATCCGTATTTGCT (site CTATACACTAG) — higher, 2.55
- CTGTACACATGGACCGGTTTTCCCGGTAATCCGTATTTGCT (site CTGTACACTAG) — higher, 2.51
- CTGTACACATGGACCGGTTTTCCCGGTAATCCGTATTTGCT (site CTTTACACTAG) — lower, 0.828
- CTGTACGCATGGACCGGTTTTCCCGGTAATCCGTATTTGTC (site CTGTACGCTGA) — higher, 2.56
- CTGTCGCCATGGACCGGTTTTCCCGGTAATCCGTATTTGCA (site CTGTCGCCTTG) — lower, 0
- CTGTCGTCATGGACCGGTTTTCCCGGTAATCCGTATTTGTG (site CTGTCGTCTCA) — lower, 0.831
- CTGTGACCATGGACCGGTTTTCCCGGTAATCCGTATTTGTA (site CTGTGACCTTA) — lower, 0.00405
- CTGTGCCCATGGACCGGTTTTCCCGGTAATCCGTATTTGAG (site CTGTGCCCTCT) — lower, 0.0219
- CTGTGCCCATGGACCGGTTTTCCCGGTAATCCGTATTTGCC (site CTGTGCCCTGG) — within 0.2 log units, 1.34
- CTGTTAGCATGGACCGGTTTTCCCGGTAATCCGTATTTGTG (site CAGTTAGCTCA) — lower, 0.669
- CTGTTAGCATGGACCGGTTTTCCCGGTAATCCGTATTTGTG (site CCGTTAGCTCA) — lower, 0.102
- CTGTTAGCATGGACCGGTTTTCCCGGTAATCCGTATTTGTG (site CGGTTAGCTCA) — lower, 0.0126
- CTGTTAGCATGGACCGGTTTTCCCGGTAATCCGTATTTGTG (site CTGTTAGCTCA) — higher, 2.07
- CTGTTCGCATGGACCGGTTTTCCCGGTAATCCGTATTTGTA (site CTGTTCGCTTA) — higher, 2.09
- CTGTTGCCATGGACCGGTTTTCCCGGTAATCCGTATTTGAC (site CTGTTGCCTGT) — lower, 0
- CTTAAAGCATGGACCGGTTTTCCCGGTAATCCGTATTTGAT (site CATAAAGCTAT) — lower, 0
- CTTAAAGCATGGACCGGTTTTCCCGGTAATCCGTATTTGAT (site CCTAAAGCTAT) — lower, 0
- CTTAAAGCATGGACCGGTTTTCCCGGTAATCCGTATTTGAT (site CGTAAAGCTAT) — lower, 0
- CTTAAAGCATGGACCGGTTTTCCCGGTAATCCGTATTTGAT (site CTTAAAGCTAT) — lower, 1.08
- CTTAATACATGGACCGGTTTTCCCGGTAATCCGTATTTGGC (site CATAATACTGC) — lower, 0.00796
